Reference: patent publication US20220372014A1, “NEUROPROTECTIVE COMPOUNDS AND METHODS OF USE THEREOF” (The Johns Hopkins University, priority 2019, published 2022)
“Also recorded” adds a separate entry of the source.

Columns and labels:
primary cortical neurons = assay: α-syn PFF-induced cell death in mouse primary cortical neurons (Hoechst and PI staining); type: cell-based; settings: for toxicity when applied to primary cortical neurons: FIG. 12G; for α-syn PFF-induced cell death in mouse cortical neurons: pre-treated before α-syn PFF, Hoechst/PI
Description: Cell culture, transfection, primary neuronal culture and treatment. SH-SY5Y cells (ATCC) were cultured in DMEM containing 10% fetal bovine serum and penicillin/streptomycin at 37° C. under 5% C02. The cells were transfected using PolyFect reagent (Qiagen). Parthanatos was induced by the treatment of 50 μM MNNG for 15 min in SH-SY5Y cells. ABT-888 or PAAN/MIF inhibitors were pretreated with indicated concentration 1 h before MNNG treatment and cell death were assessed after 24 h. Primary cortical neurons from WT, PAAN/MIF KO, E22Q KI or P1G KI embryos were prepared as previously described See Kam et al. (2018) Science 362:eaat8407. Briefly, the cortex was dissected and cultured at embryonic day 16 in neurobasal media supplemented with B-27, 0.5 mM L-glutamine, penicillin and streptomycin (Invitrogen). Primary neurons were infected with AAV2-control, AAV2-PAAN/MIF WT, AAV2-PAAN/MIF E22Q, AAV2-PAAN/MIF E22A or AAV2-MIF P1G (ViGene Biosciences) at days in vitro (DIV) 4-5. ABT-888 or PAAN/MIF inhibitors were applied to neurons 1 h before α-syn PFF treatment. The neuron growth medium was replaced with fresh medium alone or including inhibitors every 3-4 days. α-syn PFF was added at DIV 7 and further incubated for indicated times followed by the cell death assay or biochemical experiments.
(§1) Cell death and viability assessment. Primary cultured cortical neurons were treated with 5 μg/ml of α-syn PFF for 14 days and cell death was determined by staining of all nuclei with 7 μM Hoechst 33342 and dead cell nuclei with 2 μM propidium iodide (PI) (Invitrogen). The numbers of total and dead cells were counted with the Axiovision 4.6 software (Carl Zeiss). Cell viability was determined by fluorescence at an excitation wavelength 570 nm and an emission wavelength 585 nm using Alamar Blue (Invitrogen).

[1] = biological target: T1, PAAN/MIF thiol-protein oxidoreductase activity (Homo sapiens, UniProt P14174); assay: Oxidoreductase activity assay (insulin reduction); type: biochemical; settings: 10 μM compounds
T1 construct: GST (N, cleaved yes); made in house; host or cells: Escherichia coli
T1 sequence (P14174 1-115): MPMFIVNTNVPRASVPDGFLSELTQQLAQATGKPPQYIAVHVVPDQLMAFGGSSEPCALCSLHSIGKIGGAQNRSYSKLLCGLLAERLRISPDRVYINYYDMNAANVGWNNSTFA
Description: Oxidoreductase activity assay. The thiol-protein oxidoreductase activity of PAAN/MIF was measured using insulin as the substrate as described previously. See Kudrin et al. (2006) J. Biol. Chem. 281:29641-51. Briefly, the insulin assay is based on the reduction of insulin and subsequent insolubilization of the insulin β-chain. The time-dependent increase in turbidity is then measured spectrophotometrically at 650 nm. The reaction was started by adding 5 μM PAAN/MIF WT in the presence or absence of 10 μM compounds (compounds 41, 56, 76, and 77) dissolved in 20 mM sodium phosphate buffer (pH 7.2), and 200 mM reduced glutathione (GSH) to ice-cold reaction mixture containing 1 mg/ml insulin, 100 mM sodium phosphate buffer (pH 7.2) and 2 mM EDTA. Insulin reduction was measured against the control solution (containing GSH) in the same experiment.

HT 22 cells = assay: TNF-α and z-VAD-induced necroptosis, Alamar blue; type: cell-based; settings: 1 ng/ml TNF-α with 50 μM z-VAD
Description: Graphs represent mean±s.e.m. ***P<0.0005, two-way ANOVA followed by Tukey's post hoc test (n=3). A PARP inhibitor, ABT-888 is used for the positive control. FIGS. 12B and 12C show in vitro oxidoreductase and tautomerase activity of MIF/PAAN with compound 41, 56, 76, or 77. FIGS. 12D and 12E show Alamar blue cell viability assay from SH-SY5Y cells pre-incubated with compound 41, 56, 76, or 77 in response to 0.5 μM staurosporine (STS) or from HT 22 cells incubated with 1 ng/ml of TNF-α with 50 μM z-VAD. A pan caspase inhibitor, z-VAD or necrostatin (Nec-1) is used for the positive control and PARP inhibitor, ABT-888 is used for negative control. Bars represent mean±s.e.m. ***P<0.0005, two-way ANOVA followed by Tukey's post hoc test (n=3). […] Bars represent mean±s.e.m. **P<0.005, ***P<0.0005, two-way ANOVA followed by Tukey's post hoc test (n=3).
FIGS. 14A-14G show the characterization of compound 121. […] Bars represent means±s.e.m. ***P<0.0005, two-way ANOVA followed by Tukey's post hoc test (n=4). […] Bars represent mean±s.e.m. ***P<0.0005, two-way ANOVA followed by Tukey's post hoc test (n=4). […] Bars represent means±s.e.m. **P<0.005, ***P<0.0005, one-way ANOVA followed by Tukey's post hoc test (n=3). […] Bar represent mean±s.e.m. ***P<0.0005, one-way ANOVA followed by Tukey's post hoc test (n=3). […] Quantification of inhibition of PARP-1 activity by compound 56, compound 121 and ABT-888 is shown. Graphs represent mean±s.e.m. ***P<0.0005, two-way ANOVA followed by Tukey's post hoc test (n=3). FIGS. 14F and 14G show Alamar blue cell viability assay from SH-SY5Y cells pre-incubated with either compound 56 or 121 in response to (14F) 0.5 μM staurosporine (STS) or (14G) from HT 22 cells incubated with 1 ng/ml of TNF-α with 50 μM z-VAD. Bars represent mean±s.e.m. ***P<0.0005, two-way ANOVA followed by Tukey's post hoc test (n=5).
as §1

EcoRI = EcoRI (Escherichia coli, UniProt P00642); assay: In vitro nuclease assay of EcoRI (pcDNA3 substrate); type: biochemical
Description: Nuclease assay. Purified PAAN/MIF protein (4 μM) was incubated with compounds (10 μM) in the nuclease buffer [10 mM Tris-C1 (pH 7.0) and 10 mM MgCl2] for 20 m on ice. Then samples were added with 1 μM of PAAN/MIF substrate (PS30 or RF) and incubated for 1 h at 37° C. The reaction was terminated with loading buffer containing 10 mM EDTA and separated on 15% TBE-urea polyacrylamide (PAGE) gel or 20% TBE PAGE gel. For other nucleases (EcoRI and EcoRV) assays, pcDNA3 (500 ng/reaction) was used as a substrate and 0.01 unit of Exonulcase III were incubated with small dsDNA (Sequence ID NO 4:5′-[…]-3′ and Sequence ID NO 5:5′-[…]-3′).

Sequence of EcoRI (P00642 whole entry): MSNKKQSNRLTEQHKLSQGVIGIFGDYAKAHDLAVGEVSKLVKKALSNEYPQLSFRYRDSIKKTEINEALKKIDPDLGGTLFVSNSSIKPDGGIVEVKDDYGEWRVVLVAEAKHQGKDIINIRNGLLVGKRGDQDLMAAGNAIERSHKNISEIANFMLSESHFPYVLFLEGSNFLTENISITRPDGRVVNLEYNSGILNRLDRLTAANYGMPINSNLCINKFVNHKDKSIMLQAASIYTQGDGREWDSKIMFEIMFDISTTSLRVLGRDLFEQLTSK

Structure (SMILES) | toxicity when applied to primary cortical neurons (primary cortical neurons) | MIF's oxidoreductase activity [1] | TNFα and Z-VAD-induced necroptosis (HT 22 cells) | nuclease activity of EcoRI (EcoRI) | α-syn PFF-induced cell death in mouse cortical neurons (primary cortical neurons)
COc1ccc(CC[C@H]2OC(=O)[C@@H]3CCCCN3C(=O)C(=O)C(C)(C)COC(=O)C=CCCN(C)C(=O)CNC(=O)[C@H](C(C)C)N(C)C(=O)[C@@H](Cc3ccccc3)NC(=O)[C@H](CC(C)C)N(C)C(=O)CCC(=O)Nc3cccc2c3)cc1OC [compound 76] | some toxicity | Neither did they inhibit | not prevented | do not inhibit | –
COc1ccc(CC[C@H]2OC(=O)[C@@H]3CCCCN3C(=O)C(=O)C(C)(C)COC(=O)C=CCCN(C)C(=O)[C@@H]3CCCN3C(=O)[C@H](COC(C)(C)C)N(C)C(=O)C(c3ccccc3)NC(=O)CN(C)C(=O)COc3cccc2c3)cc1OC (stereo partly shown) [compound 41] | some toxicity | Neither did they inhibit | not prevented | do not inhibit | attenuated
COc1ccc(CC[C@H]2OC(=O)[C@@H]3CCCCN3C(=O)C(=O)C(C)(C)COC(=O)C=CCCN(C)C(=O)[C@@H]3CCCN3C(=O)[C@H](COC(C)(C)C)N(C)C(=O)C(c3ccccc3)NC(=O)[C@H](C)N(C)C(=O)COc3cccc2c3)cc1OC (stereo partly shown) [compound 56] | – | Neither did they inhibit | not prevented; also recorded: failed to inhibit | do not inhibit | attenuated; also recorded: protected
COc1ccc(CC[C@H]2OC(=O)[C@@H]3CCCCN3C(=O)C(=O)C(C)(C)COC(=O)C=CCCN(C)C(=O)[C@@H]3CCCN3C(=O)[C@H](COC(C)(C)C)N(C)C(=O)C(c3ccccc3)NC(=O)[C@H](C)N(C)C(=O)COc3cc(F)cc2c3)cc1OC (mixture of isomers) [compound 121] | – | – | failed to inhibit | – | protected
COc1ccc(CC[C@H]2OC(=O)[C@@H]3CCCCN3C(=O)C(=O)C(C)(C)COC(=O)C=CCCN(C)C(=O)[C@H](C)NC(=O)[C@H](C(C)C)N(C)C(=O)[C@@H](Cc3ccccc3)NC(=O)[C@H](CC(C)C)N(C)C(=O)CCC(=O)Nc3cccc2c3)cc1OC [compound 77] | – | Neither did they inhibit | not prevented | do not inhibit | attenuated
